Experimental data from ChEMBL document CHEMBL4888484, “Replenishing the malaria drug discovery pipeline: Screening and hit evaluation of the MMV Hit Generation Library 1 (HGL1) against asexual blood stage Plasmodium falciparum ,using a nano luciferase reporter read-out” (2022).

Experiments:
[1] = tested on: Plasmodium falciparum; assay: Hit confirmation in dose-response curve in Dd2 pLDH assay, at 72h; assay type: functional, organism-based; parameters: timepoint 72 hour; settings: Dd2, Erythrocyte
[2] = Hit confirmation in dose-response curve in HepG2 cytotoxicity assay, at 72h; assay type: toxicity, cell-based; parameters: timepoint 72 hour; settings: human, HepG2 cells
[3] = tested on: Plasmodium falciparum; assay: Hit confirmation in dose-response curve in NF54 pLDH assay, at 72h; assay type: functional, organism-based; parameters: timepoint 72 hour; settings: NF54, Erythrocyte
[4] = tested on: Plasmodium falciparum; assay: Hit confirmation in dose-response curve in NF54 nanoGlo assay, at 72h; assay type: functional, organism-based, Erythrocyte; parameters: timepoint 72 hour; settings: Plasmodium falciparum, NF54, Erythrocyte, 72 h
[5] = tested on: Plasmodium falciparum; assay: Hit confirmation in dose-response curve in NF54 nanoGlo assay, at 12h; assay type: functional, organism-based, Erythrocyte; parameters: timepoint 12 hour; settings: Plasmodium falciparum, NF54, Erythrocyte, 12 h
[6] = tested on: Plasmodium falciparum; assay: Re-testing in dose-response curve in 3D7 pLDH assay, at 72h; assay type: functional, organism-based; parameters: timepoint 72 hour; settings: 3D7, Erythrocyte
[7] = Re-testing in dose-response curve in HepG2 cytotoxicity assay, at 72h; assay type: toxicity, cell-based; parameters: timepoint 72 hour; settings: human, HepG2 cells

Row | SMILES | IC50 [1] [µM] | IC50 at 72 h [2] [µM] | IC50 [3] [µM] | IC50 [4] [µM] | IC50 [5] [µM] | IC50 [6] [µM] | IC50 at 72 h [7] [µM]
1 | c1coc(CNc2nc(Nc3cccc4ccccc34)nc3ccccc23)c1 | 5.01 | > 10 | 7.94 | 2.82 | 5.75 |  | 
2 | O=C(Nc1nncs1)c1cccc(C(=O)Nc2nncs2)n1 | 3.31 | > 10 | 3.24 | 1.95 | > 10 |  | 
3 | Cc1nn(-c2nc3ccccc3[nH]2)c(O)c1CCC(C)C | 3.72 | > 10 | 8.51 | 2.69 | 8.91 |  | 
4 | CC(N=C1NC(=NC(C)c2ccccc2)c2ccccc21)c1ccccc1 (stereo unspecified) | 4.17 | > 10 | 5.01 | 2.45 | 4.9 |  | 
5 | CCc1c(C)nn2c(c1C)c(-c1ccccc1)[n+]1c(C)c(CC)c(C)nc21 | 1.48 | > 10 | 2.19 | 1.7 | > 10 |  | 
6 | COc1ccc(-c2nn3c(N4CCN(CC=Cc5ccccc5)CC4)cc(C)nc3c2C)cc1OC | 5.37 | > 10 | 7.76 | 1.74 | 3.89 |  | 
7 | NC(=O)c1ccccc1NC(=O)C1CCN(c2cc(C3CC3)ncn2)CC1 | 6.31 | > 10 | 8.32 | 2.04 | 2.4 |  | 
8 | O=C(Nc1cnc(-n2ccnc2)nc1)C(c1ccccc1)c1ccccc1 | 5.25 | > 10 | 3.98 | 2.45 | 7.94 |  | 
9 | O=C(N[C@@H](Cn1nccn1)c1ccccc1)c1cc(Br)ccc1Cl | 2.95 | > 10 | 2.75 | 1.74 | > 10 |  | 
10 | O=C(c1cscn1)N1CC[C@H](Oc2cccc(Cl)c2)C1 | 1.95 | > 10 | 6.92 | 3.98 | > 10 | 0.575 | > 25
11 | Cc1c(C)c2ccc(NC(=O)c3cc4ccccc4o3)cc2[nH]c1=O | 3.24 | > 10 | 8.13 | 1.66 | 3.47 |  | 
12 | CC(C)N1C(=O)NC(=O)C2(Cc3ccccc3N3CCN(Cc4ccccc4)CC32)C1=O (stereo unspecified) | > 10 | > 10 | > 10 | 3.98 | > 10 |  | 
13 | CC(C)c1cc(=O)[nH]c(-n2nc(C3CC3)cc2NC(=O)Cc2ccc(Cl)cc2)n1 | 3.89 | > 10 | 7.76 | 1.91 | > 10 |  | 
14 | COc1cc(F)c([C@H](C)NC(=O)N(C)Cc2ccco2)cc1OC | 10.7 | > 10 | > 10 | 1.86 | 0.891 |  | 
15 | O=C(Nc1c(S(=O)(=O)c2ccccc2)c2nc3ccccc3nc2n1CCc1ccccc1)c1ccc(Cl)cc1 | 5.62 | > 10 | 11.2 | 1.1 | 0.603 |  | 
16 | O=C(c1cc2ccccc2[nH]1)N1CCc2sc(Cl)cc2C1 | > 10 | > 10 | > 10 | 7.76 | 2.95 |  | 
17 | CC(C)C(NC(=O)COc1ccccc1)C(=O)NCC(c1ccccc1Cl)c1c[nH]c2ccccc12 (stereo unspecified) | 7.76 | > 10 | 9.12 | 2.4 | 3.39 |  | 
18 | CCn1cc(C#N)c(=O)c2cc(F)c(N3CCN(Cc4ccccc4)CC3)cc21 | > 10 | > 10 | > 10 | > 10 | > 10 |  | 

Row | SMILES | IC50 [1] [µM] | IC50 at 72 h [2] [µM] | IC50 [3] [µM] | IC50 [4] [µM] | IC50 [5] [µM] | IC50 [6] [µM] | IC50 at 72 h [7] [µM]
19 | COc1cccc2c(=O)c3c([nH]c12)CCN(CC(=O)NCc1ccccc1Cl)C3 | 9.12 | > 10 | 10 | 9.77 | > 10 |  | 
20 | CCC(=O)N(Cc1ccc(-c2ccc(Cl)cc2)o1)[C@H]1CCS(=O)(=O)C1 | 2.95 | > 10 | 5.13 | 1.66 | 3.39 |  | 
21 | COc1ccccc1N(Cc1ccccc1)C1=NC(=[N+](Cc2ccccc2)c2ccccc2OC)c2ccccc21 | 5.5 | > 10 | 6.03 | 2.82 | 4.68 |  | 
22 | CCNC(=O)N1CC[C@H](Oc2ccc3ccccc3n2)C1 | 3.72 | > 10 | 7.41 | 2.69 | > 10 |  | 
23 | CCc1ccc(NC(=O)[C@H](C)N2CCC(NS(=O)(=O)c3cccs3)CC2)cc1 | 2.29 | > 10 | 4.17 | 1.15 | 4.79 |  | 
24 | O=C(CCc1ccc(Cl)c(C(F)(F)F)c1)N1CC[C@H](N2CCc3ccccc3C2)C1 | 8.32 | > 10 | 5.62 | 5.5 | > 10 |  | 
25 | Cc1cc(Br)cc(N[C@H](c2cccnc2)c2ncc[nH]2)c1 | > 10 | > 10 | > 10 | 3.39 | 1.48 |  | 
26 | COc1cc(C(=O)Nc2ccc3sc(NC(=O)c4cc(OC)c(OC)c(OC)c4)nc3n2)cc(OC)c1OC | 2.95 | > 10 | 2.95 | 0.263 | 1.15 |  | 
27 | O=C(Nc1ccc(Cl)c(Cl)c1)Nc1ccc(Cl)cc1NC(=O)Nc1ccc(Cl)c(Cl)c1 | 4.47 | > 10 | 6.92 | 2.04 | 3.31 |  | 
28 | CC(C)N(CC(=O)Nc1nccs1)Cc1ccccn1 | 0.891 | > 10 | 1.7 | 0.692 | > 10 | 9.79 | > 24.8
29 | O=C(Nc1ccccc1Cl)N1CCC(N2CCc3sccc3C2)CC1 | 4.57 | > 10 | 3.55 | 3.72 | > 10 |  | 
30 | O=S(=O)(c1ccc(Cl)s1)N1CCC(N2CCc3sccc3C2)CC1 | 5.62 | > 10 | 1.12 | 3.47 | > 10 |  | 
31 | O=C(Nc1ccccc1)Nc1cnc(-n2ccnc2)nc1 | 5.5 | > 10 | 3.55 | 2.63 | 4.68 |  | 
32 | O=S(=O)(c1ccc(F)c(Cl)c1)N1CC[C@H](Oc2ccncc2Cl)C1 | 2.69 | > 10 | 7.59 | 1.86 | 3.24 |  | 
33 | O=C(CN1CCC[C@H]1C1CCCC1)NCC1CCCCC1 | 1.66 | > 10 | 3.02 | 3.8 | > 10 | 2.07 | > 25
34 | CCc1ccc(C(=O)Nc2cnc(-n3ccnc3)nc2)cc1 | 6.31 | > 10 | 3.55 | 5.01 | > 10 |  | 
35 | Fc1cnc(OC2Cc3ccccc3C2)nc1 | > 10 | > 10 | 3.24 | 1.86 | > 10 |  | 
36 | CCc1cc(=O)[nH]c(-n2nc(C3CC3)cc2NC(=O)C2CCCCC2)n1 | 3.24 | > 10 | 4.07 | 1.26 | > 10 |  | 
